Measured values reported in ChEMBL document CHEMBL2074529, “Increased sensitivity to gemcitabine of P-glycoprotein and multidrug resistance-associated protein-overexpressing human cancer cell lines” (Br J Cancer, 2003).

Columns and labels:
Assay type in all cases: functional, cell-based
[1] = molecular target: T1, ATP-dependent translocase ABCB1 (Homo sapiens, UniProt P08183); experiment: TP_TRANSPORTER: drug resistance in MDR1-expressing BROmdr cells
[2] = molecular target: T1, ATP-dependent translocase ABCB1; experiment: TP_TRANSPORTER: drug resistance in 2RI60 cells
[3] = molecular target: T1, ATP-dependent translocase ABCB1; experiment: TP_TRANSPORTER: drug resistance in […]-expressing SWI573/SI(I.I) cells
[4] = molecular target: T1, ATP-dependent translocase ABCB1; experiment: TP_TRANSPORTER: drug resistance in 2780AD cells

T1 sequence (P08183 whole entry): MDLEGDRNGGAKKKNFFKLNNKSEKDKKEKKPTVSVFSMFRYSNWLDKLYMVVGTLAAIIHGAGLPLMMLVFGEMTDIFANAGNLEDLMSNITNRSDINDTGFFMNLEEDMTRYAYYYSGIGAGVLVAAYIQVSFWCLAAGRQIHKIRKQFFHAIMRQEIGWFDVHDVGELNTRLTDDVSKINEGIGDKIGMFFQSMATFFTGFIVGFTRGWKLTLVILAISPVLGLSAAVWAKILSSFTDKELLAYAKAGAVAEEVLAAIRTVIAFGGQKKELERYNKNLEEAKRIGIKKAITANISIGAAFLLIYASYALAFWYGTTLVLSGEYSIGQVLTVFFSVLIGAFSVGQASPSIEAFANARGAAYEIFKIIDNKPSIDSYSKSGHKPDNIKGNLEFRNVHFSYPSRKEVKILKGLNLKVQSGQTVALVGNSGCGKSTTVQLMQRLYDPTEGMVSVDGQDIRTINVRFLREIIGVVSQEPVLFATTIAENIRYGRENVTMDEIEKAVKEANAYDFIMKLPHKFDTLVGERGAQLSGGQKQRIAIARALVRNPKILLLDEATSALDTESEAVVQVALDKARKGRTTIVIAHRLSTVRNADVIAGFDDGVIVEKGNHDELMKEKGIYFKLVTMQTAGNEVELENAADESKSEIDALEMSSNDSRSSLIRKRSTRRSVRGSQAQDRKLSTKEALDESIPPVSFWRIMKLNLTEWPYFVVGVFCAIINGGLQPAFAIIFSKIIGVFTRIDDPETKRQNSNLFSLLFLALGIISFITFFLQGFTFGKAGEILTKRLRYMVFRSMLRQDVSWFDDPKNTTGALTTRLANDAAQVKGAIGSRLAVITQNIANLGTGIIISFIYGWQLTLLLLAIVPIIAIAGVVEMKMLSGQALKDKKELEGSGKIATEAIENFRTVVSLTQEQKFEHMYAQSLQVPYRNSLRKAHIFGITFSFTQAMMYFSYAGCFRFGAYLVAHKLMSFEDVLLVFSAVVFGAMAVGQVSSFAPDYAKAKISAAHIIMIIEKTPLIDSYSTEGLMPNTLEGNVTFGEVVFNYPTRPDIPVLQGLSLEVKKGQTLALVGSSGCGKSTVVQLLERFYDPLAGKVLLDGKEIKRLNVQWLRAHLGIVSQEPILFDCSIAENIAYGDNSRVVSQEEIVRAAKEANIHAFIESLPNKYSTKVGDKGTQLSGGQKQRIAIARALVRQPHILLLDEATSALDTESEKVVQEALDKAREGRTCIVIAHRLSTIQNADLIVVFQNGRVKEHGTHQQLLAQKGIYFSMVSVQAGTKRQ

- Activity [1]: substrate [+]
- Activity [2]: substrate [+]
- Activity [3]: substrate [+]
- Activity [4]: substrate [+]
SMILES: Nc1ccn([C@@H]2O[C@H](CO)[C@@H](O)C2(F)F)c(=O)n1 [GEMCITABINE]
